Experimental findings from patent publication US20260028365A1 (BIOGEN MA INC., priority 2022, published 2026) are described below.

SMILES strings stand for the structures. Read-outs that look alike come from different tables or passages of the source.

Assay [1] deals with JH2 domain of human Tyk2 (Homo sapiens (Human), UniProt P29597). Put plainly: JH2 Biochemical Assay (TR-FRET probe displacement). The format is binding. A general note: TR-FRET usually uses a lanthanide donor and a delayed reading to cut background.
In assay [2] the target is Tyk2 (Homo sapiens (Human), UniProt P29597). Put plainly: pSTAT4 Cell Assay (MSD, NK92 cells). Type of assay: cell-based.
The mark [3] stands for this setting: TR-FRET probe displacement, JH2 domain of human Tyk2.
The mark [4] stands for this setting: JH2 domain of human Tyk2, TR-FRET probe displacement.
Setting [5] is: TR-FRET probe displacement, JH2 domain.

Sequence of JH2 domain of human Tyk2 (P29597 575-876): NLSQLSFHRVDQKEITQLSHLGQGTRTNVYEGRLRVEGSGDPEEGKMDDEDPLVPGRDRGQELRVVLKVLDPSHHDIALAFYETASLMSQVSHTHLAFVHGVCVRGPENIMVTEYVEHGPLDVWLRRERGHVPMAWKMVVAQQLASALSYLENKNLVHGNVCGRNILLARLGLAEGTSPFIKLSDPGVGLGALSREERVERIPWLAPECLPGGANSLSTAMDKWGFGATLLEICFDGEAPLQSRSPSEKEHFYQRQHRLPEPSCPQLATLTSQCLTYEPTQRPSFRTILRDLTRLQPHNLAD
Sequence of Tyk2 (P29597 whole entry, the tested form may be a part): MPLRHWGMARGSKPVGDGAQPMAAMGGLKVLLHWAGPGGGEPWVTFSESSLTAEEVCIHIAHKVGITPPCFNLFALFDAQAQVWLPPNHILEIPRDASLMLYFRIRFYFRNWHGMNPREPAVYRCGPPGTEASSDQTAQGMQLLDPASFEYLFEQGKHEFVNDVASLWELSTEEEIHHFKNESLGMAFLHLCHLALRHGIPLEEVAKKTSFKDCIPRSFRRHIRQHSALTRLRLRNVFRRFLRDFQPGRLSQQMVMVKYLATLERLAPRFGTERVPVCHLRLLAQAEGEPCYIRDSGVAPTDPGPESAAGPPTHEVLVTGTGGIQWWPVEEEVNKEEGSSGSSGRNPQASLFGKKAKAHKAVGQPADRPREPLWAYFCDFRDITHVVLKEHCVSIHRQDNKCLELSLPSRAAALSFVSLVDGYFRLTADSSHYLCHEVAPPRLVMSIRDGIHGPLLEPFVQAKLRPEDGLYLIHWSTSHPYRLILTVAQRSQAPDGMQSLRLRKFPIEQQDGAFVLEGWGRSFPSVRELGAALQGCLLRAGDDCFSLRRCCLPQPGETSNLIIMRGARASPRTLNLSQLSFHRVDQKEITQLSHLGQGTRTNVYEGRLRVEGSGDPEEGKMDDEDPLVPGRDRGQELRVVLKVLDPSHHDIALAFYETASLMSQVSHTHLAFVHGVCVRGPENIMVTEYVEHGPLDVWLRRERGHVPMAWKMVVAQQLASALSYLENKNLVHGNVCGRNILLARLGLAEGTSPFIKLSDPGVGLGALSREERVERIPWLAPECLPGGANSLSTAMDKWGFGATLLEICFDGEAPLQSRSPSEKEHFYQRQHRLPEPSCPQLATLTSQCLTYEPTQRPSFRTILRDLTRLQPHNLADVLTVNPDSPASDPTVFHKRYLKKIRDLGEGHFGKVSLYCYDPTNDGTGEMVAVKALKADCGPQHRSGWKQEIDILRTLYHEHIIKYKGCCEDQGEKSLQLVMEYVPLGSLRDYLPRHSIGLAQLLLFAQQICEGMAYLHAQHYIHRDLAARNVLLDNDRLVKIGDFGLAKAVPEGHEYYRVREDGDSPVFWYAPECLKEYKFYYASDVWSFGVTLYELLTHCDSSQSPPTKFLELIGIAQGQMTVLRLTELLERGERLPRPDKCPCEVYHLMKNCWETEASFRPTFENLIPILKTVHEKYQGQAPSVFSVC

`CC(=O)Nc1cc(Nc2cc(C)nc(C(C)(F)F)n2)c(-c2cc3n(n2)CCCN3C)cn1` [Example 240, N-(4-((2-(1,1-difluoroethyl)-6-methylpyrimidin-4-yl)amino)-5-(4-methyl-4,5,6,7-tetrahydropyrazolo[1,5-a]pyrimidin-2-yl)pyridin-2-yl)acetamide]: the IC50 in assay [1] (setting [3]) and in assay [2] (MSD) was at most 10 nM each time.
Consider `CC(=O)Nc1cc(Nc2cc(C)nc(C(C)(F)F)n2)c(-c2cnc(COC(F)F)cn2)cn1` [Example 662, N-(4-((2-(1,1-difluoroethyl)-6-methylpyrimidin-4-yl)amino)-5-(5-((difluoromethoxy)methyl)pyrazin-2-yl)pyridin-2-yl)acetamide], for which the IC50 (commonly the concentration that gives 50% inhibition) is at most 10 nM in assay [1] (setting [4]) and 10 to 100 nM in assay [2] (MSD).
In the case of `CC(=O)Nc1cc(Nc2cc(C)nc(C(C)(F)F)n2)c(-c2cncc(CN(C)C)n2)cn1` [Example 675, N-(4-((2-(1,1-difluoroethyl)-6-methylpyrimidin-4-yl)amino)-5-(6-((dimethylamino)methyl)pyrazin-2-yl)pyridin-2-yl)acetamide], the IC50 in assay [1] (setting [4]) is at most 10 nM; in assay [2] (MSD), 100 to 1000 nM.
On the same counts, the results for `CC(=O)Nc1cc(Nc2cc(C)nc(C(C)(F)F)n2)c(OCC2CCC(=O)O2)cn1` (stereo not shown) [Example 499, N-(4-((2-(1,1-difluoroethyl)-6-methylpyrimidin-4-yl)amino)-5-((5-oxotetrahydrofuran-2-yl)methoxy)pyridin-2-yl)acetamide] are at most 10 nM and 10 to 100 nM.
On the same counts, the results for `CCOc1cnc(NC(C)=O)cc1Nc1cc(OC2CCC2)nc(C(C)(F)F)n1` [Example 462, N-(4-((6-cyclobutoxy-2-(1,1-difluoroethyl)pyrimidin-4-yl)amino)-5-ethoxypyridin-2-yl)acetamide] are at most 10 nM and at most 10 nM.
In the same order, the values of `CC(=O)Nc1cc(Nc2cc(C)nc(C(C)(F)F)n2)c(OC2CCOC2)cn1` (stereo not shown) [Example 477, N-(4-((2-(1,1-difluoroethyl)-6-methylpyrimidin-4-yl)amino)-5-((tetrahydrofuran-3-yl)oxy)pyridin-2-yl)acetamide] are at most 10 nM and 10 to 100 nM.
`CC(=O)Nc1cc(Nc2cc(C)nc(C(C)(F)F)n2)c([C@@H]2CCCO2)cn1` (single isomer, unassigned) [Example 279, (S)—N-(4-((2-(1,1-difluoroethyl)-6-methylpyrimidin-4-yl)amino)-5-(tetrahydrofuran-2-yl)pyridin-2-yl)acetamide or (R)-N-(4-((2-(1,1-difluoroethyl)-6-methylpyrimidin-4-yl)amino)-5-(tetrahydrofuran-2-yl)pyridin-2-yl)acetamide]: the IC50 was in the range of 10 to 100 nM in assay [1] (setting [3]) and 100 to 1000 nM in assay [2] (MSD).
Consider `CC(=O)Nc1cc(Nc2cc(C)nc(C(C)(F)F)n2)c(-c2ccn(C(C)C)n2)cn1` [Example 603, N-(4-((2-(1,1-difluoroethyl)-6-methylpyrimidin-4-yl)amino)-5-(1-isopropyl-1H-pyrazol-3-yl)pyridin-2-yl)acetamide], for which the IC50 in assay [1] (setting [4]) and in assay [2] (MSD) was at most 10 nM in each case.
Regarding `CC(=O)Nc1cc(Nc2cc(-c3cnn(C(C)C)c3)nc(C(C)(F)F)n2)c(F)cn1` [Example 819, N-(4-((2-(1,1-difluoroethyl)-6-(1-isopropyl-1H-pyrazol-4-yl)pyrimidin-4-yl)amino)-5-fluoropyridin-2-yl)acetamide], the concentration for half-maximal inhibition (IC50) in assay [1] (setting [5]) is 10 to 100 nM; in assay [2] it was at least 1000 nM.
On the same counts, the results for `COc1cnc(-c2cnc(NC(C)=O)cc2Nc2ccnc(C(C)(F)F)n2)cn1` [Example 828, N-(4-((2-(1,1-difluoroethyl)pyrimidin-4-yl)amino)-5-(5-methoxypyrazin-2-yl)pyridin-2-yl)acetamide] are at most 10 nM and 10 to 100 nM.
For `CC(=O)Nc1cc(Nc2ccnc(C(C)(F)F)c2)c(-c2ncc(F)cn2)cn1` [Example 187, N-(4-((2-(1,1-difluoroethyl)pyridin-4-yl)amino)-5-(5-fluoropyrimidin-2-yl)pyridin-2-yl)acetamide], the IC50 in assay [1] (setting [3]) was 10 to 100 nM; in assay [2] (MSD), at least 1000 nM.
Take `COCC1(COc2cnc(NC(C)=O)cc2Nc2cc(C)nc(C(C)(F)F)n2)CC1` [Example 326, N-(4-((2-(1,1-difluoroethyl)-6-methylpyrimidin-4-yl)amino)-5-((1-(methoxymethyl)cyclopropyl)methoxy)pyridin-2-yl)acetamide]: the IC50 is at most 10 nM in assay [1] (setting [3]) and 10 to 100 nM in assay [2] (MSD).
In the same order, the values of `CC(=O)Nc1cc(Nc2cccc(C(C)(F)F)n2)c(-c2ccn(C)n2)cn1` [Example 147, N-(4-((6-(1,1-difluoroethyl)pyridin-2-yl)amino)-5-(1-methyl-1H-pyrazol-3-yl)pyridin-2-yl)acetamide] are at most 10 nM and at most 10 nM.
On the same counts, the results for `C=Cc1cc(Nc2cc(NC(C)=O)ncc2OCCOC)nc(C(C)(F)F)n1` [Example 55, N-(4-((2-(1,1-difluoroethyl)-6-vinylpyrimidin-4-yl)amino)-5-(2-methoxyethoxy)pyridin-2-yl)acetamide] are at most 10 nM and at most 10 nM.
On the same counts, the results for `CC(=O)Nc1cc(Nc2cc(C)nc(C(C)(F)F)n2)c(-c2ncn(C)n2)cn1` [Example 157, N-(4-((2-(1,1-difluoroethyl)-6-methylpyrimidin-4-yl)amino)-5-(1-methyl-1H-1,2,4-triazol-3-yl)pyridin-2-yl)acetamide] are at most 10 nM and 100 to 1000 nM.
Regarding `CC(=O)Nc1cc(Nc2cc(C)nc(C(C)(F)F)n2)c(OCC(F)C2CCC2)cn1` (stereo not shown) [Example 420, N-(5-(2-cyclobutyl-2-fluoroethoxy)-4-((2-(1,1-difluoroethyl)-6-methylpyrimidin-4-yl)amino)pyridin-2-yl)acetamide], the IC50 in assay [1] (setting [4]) is at most 10 nM; in assay [2] (MSD) it was 10 to 100 nM.
With `COc1cc(Nc2cc(NC(C)=O)ncc2-c2ncc(F)cn2)nc(C(C)(F)F)c1` [Example 191, N-(4-((6-(1,1-difluoroethyl)-4-methoxypyridin-2-yl)amino)-5-(5-fluoropyrimidin-2-yl)pyridin-2-yl)acetamide], the IC50 in assay [1] (setting [3]) is at most 10 nM; in assay [2] (MSD) it was 10 to 100 nM.
Regarding `CC(=O)Nc1cc(Nc2cc(C)nc(C(C)(F)F)n2)c(-n2cc(C)cn2)cn1` [Example 729, N-(4-((2-(1,1-difluoroethyl)-6-methylpyrimidin-4-yl)amino)-5-(4-methyl-1H-pyrazol-1-yl)pyridin-2-yl)acetamide], the IC50 in assay [1] (setting [4]) and in assay [2] (MSD) was at most 10 nM throughout.
Regarding `COc1cnc(NC(C)=O)cc1Nc1cc(-c2cnn(CCN3CCOCC3)c2)nc(C(C)(F)F)n1` [Example 379, N-(4-((2-(1,1-difluoroethyl)-6-(1-(2-morpholinoethyl)-1H-pyrazol-4-yl)pyrimidin-4-yl)amino)-5-methoxypyridin-2-yl)acetamide], the IC50 in assay [1] (setting [4]) is at most 10 nM; in assay [2] (MSD), 10 to 100 nM.
In the same order, the values of `COCCOc1ccc(-c2cnc(NC(C)=O)cc2Nc2ccnc(C(C)(F)F)n2)nc1` [Example 523, N-(4′-((2-(1,1-difluoroethyl)pyrimidin-4-yl)amino)-5-(2-methoxyethoxy)-[2,3′-bipyridin]-6′-yl)acetamide] are at most 10 nM and at most 10 nM.
